Data: ChEMBL document CHEMBL5316301, “Dual Nicotinamide Phosphoribosyltransferase (NAMPT) and Indoleamine 2,3-Dioxygenase 1 (IDO1) Inhibitors for the Treatment of Drug-Resistant Nonsmall-Cell Lung Cancer” (J Med Chem, 2023)
Active and inactive are the calls of the source. The rule behind the calls is not given here.

Experiments:
[1] = target: T1, Indoleamine 2,3-dioxygenase 1 (Homo sapiens, UniProt P14902); assay: Inhibition of human recombinant IDO1 assessed as reduction in N-formylkynurenine formation using L-tryptophan as substrate preincubated for 30 mins followed by substrate addition and measured after 10 mins by SpectraMax microplate reader analysis
T1 sequence (P14902 whole entry): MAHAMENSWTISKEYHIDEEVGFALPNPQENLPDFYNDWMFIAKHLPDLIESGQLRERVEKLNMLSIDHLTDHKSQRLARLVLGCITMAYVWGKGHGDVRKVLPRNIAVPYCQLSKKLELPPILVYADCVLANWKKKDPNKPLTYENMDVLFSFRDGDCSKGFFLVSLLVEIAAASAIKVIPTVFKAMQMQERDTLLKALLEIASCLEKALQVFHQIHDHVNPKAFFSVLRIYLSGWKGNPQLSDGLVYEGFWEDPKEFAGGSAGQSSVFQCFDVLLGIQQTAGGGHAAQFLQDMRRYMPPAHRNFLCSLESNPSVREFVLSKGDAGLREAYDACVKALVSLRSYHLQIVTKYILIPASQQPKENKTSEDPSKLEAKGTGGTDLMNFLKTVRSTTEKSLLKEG

[2] = target: Nicotinamide phosphoribosyltransferase (Homo sapiens, UniProt P43490); assay: Inhibition of recombinant NAMPT (unknown origin) incubated for 60 mins by SpectraMax microplate reader analysis
Chain of Nicotinamide phosphoribosyltransferase (P43490 whole entry): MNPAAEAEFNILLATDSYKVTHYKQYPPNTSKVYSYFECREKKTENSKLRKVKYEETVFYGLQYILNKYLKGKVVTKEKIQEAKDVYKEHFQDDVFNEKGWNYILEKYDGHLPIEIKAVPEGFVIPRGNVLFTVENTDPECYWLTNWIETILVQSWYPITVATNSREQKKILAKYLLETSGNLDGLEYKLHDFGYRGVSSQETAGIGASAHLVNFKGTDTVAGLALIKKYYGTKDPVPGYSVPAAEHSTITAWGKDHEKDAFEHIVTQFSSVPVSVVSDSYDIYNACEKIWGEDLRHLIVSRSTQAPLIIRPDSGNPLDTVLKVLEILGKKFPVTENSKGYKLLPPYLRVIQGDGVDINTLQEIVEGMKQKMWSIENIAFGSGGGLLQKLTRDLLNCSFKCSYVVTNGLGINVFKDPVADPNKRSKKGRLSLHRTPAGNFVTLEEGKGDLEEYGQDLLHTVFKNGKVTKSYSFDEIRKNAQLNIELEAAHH

[3] = target: T1, Indoleamine 2,3-dioxygenase 1; assay: Inhibition of human recombinant IDO1 in human HeLa cells assessed as reduction in N-formylkynurenine formation using L-tryptophan as substrate preincubated for 24 hrs followed by substrate addition and measured after 30 mins; type: cell-based
A549 [4] = assay: Antimigratory activity against NAMPT inhibitor-resistant A549 cells assessed as reduction in cell migration at 40 uM incubated for 24 hrs in presence of FK866 by inverted microscopic analysis; type: functional, cell-based; conditions: Homo sapiens
A549 [5] = assay: Downregulation of IDO1 expression in NAMPT inhibitor-resistant A549 cells measured for 24 hrs by Western blot analysis; type: functional, cell-based; conditions: Homo sapiens, dose 5-10 µM
A549 [6] = assay: cells; conditions: Homo sapiens, A549, 48 h
A549 [7] = assay: cells; conditions: Homo sapiens, A549, 48 h; remark: listed apart in the source

IC50 [1] [nM] | IC50 [3] [nM] | SMILES | other results
> 1000 | – | O=C(NCc1ccc(C(=O)N2CCC(CCNc3nonc3/C(=N/O)Nc3ccc(F)c(Br)c3)CC2)cc1)c1ccc2nccn2c1 | –
835 | 677 | O=C(NCCCCNc1nonc1/C(=N/O)Nc1ccc(F)c(Br)c1)c1ccc(CNC(=O)c2ccc3nccn3c2)cc1 | –
> 1000 | – | O=C(NCc1ccc(CNc2nonc2/C(=N/O)Nc2ccc(F)c(Br)c2)cc1)c1ccc2nccn2c1 | IC50 [2]: 4880 nM
> 1000 | – | O=C(NCc1ccc(C(=O)N2CCC(CNc3nonc3/C(=N/O)Nc3ccc(F)c(Br)c3)CC2)cc1)c1ccc2nccn2c1 | –

Second part, the molecule before the results:

SMILES | IC50 [1] [nM] | IC50 [3] [nM] | other results
O=C(Nc1ccc(CCNc2nonc2/C(=N/O)Nc2ccc(F)c(Br)c2)cc1)c1ccc2nccn2c1 | > 1000 | – | IC50 [2]: > 10000 nM
O=C(NCCNc1nonc1/C(=N/O)Nc1ccc(F)c(Br)c1)c1ccc2nccn2c1 | > 1000 | > 1000 | –
NS(=O)(=O)NCCNc1nonc1/C(=N/O)Nc1ccc(F)c(Br)c1 [EPACADOSTAT] | – | – | Activity (A549 [4]): Active; Activity (A549 [5]): inactive; IC50 (A549 [6]): 61100 nM; IC50 (A549 [7]): 34500 nM
O=C(NCCCNc1nonc1/C(=N/O)Nc1ccc(F)c(Br)c1)c1ccc2nccn2c1 | > 1000 | > 1000 | –
O=C(CCNc1nonc1/C(=N/O)Nc1ccc(F)c(Br)c1)Nc1ccc(CNC(=O)c2ccc3nccn3c2)cc1 | 151 | 161 | –
